One data set relates to pLAI reporter virus. Put plainly: microbe, parasite or virus in culture. The format is cell-based, HIV. The settings on record: Human immunodeficiency virus 1, MT4, 72 h.
Another data set relates to HIV-1 (IIIB). Put plainly: microbe, parasite or virus in culture. The format is cell-based. Conditions: Human immunodeficiency virus 1, IIIB, MT4, 120 h, HIV-1 (IIIB) in MT-4 cells, 5 days incubation, Cell Titer Glo; read-out: MT4 EC50. Background: ATP-based viability assays read luminescence as a measure of living cells.
Another data set in a line: in vitro. The settings on record: human, uninfected MT-4 cells.

EC50 and CC50 data for 16 compounds are collected here from US20250115620A1, “BRIDGED TRICYCLIC CARBAMOYLPYRIDONE COMPOUNDS AND USES THEREOF” (Gilead Sciences, Inc., priority 2022, published 2025).

As usually defined, the EC50 is the concentration that produces a half-maximal response. The term CC50 denotes the concentration giving 50% cytotoxicity. A low value points to harm at low concentration.

Like-named read-outs stand apart in the source and are kept apart here.

Regarding `CC1=NO[C@]2(CC[C@H](C)N3C[C@H]2n2cc(C(=O)NCc4ccc(F)cc4F)c(=O)c(O)c2C3=O)C1=O` [Example 25, (3′S,5S,7′R)—N-(2,4-difluorobenzyl)-12′-hydroxy-3,3′-dimethyl-1′,4,11′-trioxo-1′,4′,5′,11′-tetrahydro-3′H,4H,7′H-spiro[isoxazole-5,6′-[2,7]methanopyrido[1,2-a][1,4]diazonine]-10′-carboxamide], the EC50 was 58.1 nM in the data set on pLAI reporter virus (read-out: RLUC 50% HS EC50), 34 nM with pLAI reporter virus (read-out: RLUC CCM EC50) and not below 100 nM with HIV-1 (IIIB). In addition, the cytotoxic concentration (CC50) at 5 days in “in vitro” was not below 50 µM.
Taken in the same sequence, the figures for `CCN1C[C@@]2(CC[C@H](C)N3C[C@H]2n2cc(C(=O)NCc4c(F)cc(F)cc4F)c(=O)c(O)c2C3=O)OC1=O` [Example 63, (3′S,5R,7′R)-3-ethyl-12′-hydroxy-3′-methyl-1′,2,11′-trioxo-N-(2,4,6-trifluorobenzyl)-1′,4′,5′,11′-tetrahydro-3′H,7′H-spiro[oxazolidine-5,6′-[2,7]methanopyrido[1,2-a][1,4]diazonine]-10′-carboxamide] were 15.5 nM, 11.1 nM, 45.9 nM and not below 50 µM.
As to `C[C@H]1CC[C@]2(COC(C)(C)O2)[C@H]2CN1C(=O)c1c(O)c(=O)c(C(=O)NCc3c(F)cc(F)cc3F)cn12` [Example 137, (3′S,4R,7′R)-12′-hydroxy-2,2,3′-trimethyl-1′,11′-dioxo-N-(2,4,6-trifluorobenzyl)-1′,4′,5′,11′-tetrahydro-3′H,7′H-spiro[[1,3]dioxolane-4,6′-[2,7]methanopyrido[1,2-a][1,4]diazonine]-10′-carboxamide], the EC50 in the data set on pLAI reporter virus (read-out: RLUC 50% HS EC50) is 13.3 nM; in the data set with pLAI reporter virus (read-out: RLUC CCM EC50) it was 0.3 nM; with HIV-1 (IIIB), 1.5 nM. It took 42.4 µM to reach half-maximal cytotoxicity in “in vitro” (CC50 at 5 days).
Taken in the same sequence, the figures for `C[C@H]1CC[C@]2(CC(=O)N(Cc3ccc(F)cc3)O2)[C@H]2CN1C(=O)c1c(O)c(=O)c(C(=O)NCc3c(F)cc(F)cc3F)cn12` (single isomer, unassigned) [Example 115] were 5.1 nM, 0.3 nM, 1.2 nM and not below 50 µM.
The corresponding values for `CCN1O[C@@]2(CC[C@H](C)N3C[C@H]2n2cc(C(=O)NCc4c(F)cc(F)cc4F)c(=O)c(O)c2C3=O)CC1=O` [Example 157, (3′S,5S,7′R)-2-ethyl-12′-hydroxy-3′-methyl-1′,3,11′-trioxo-N-(2,4,6-trifluorobenzyl)-1′,4′,5′,11′-tetrahydro-3′H,7′H-spiro[isoxazolidine-5,6′-[2,7]methanopyrido[1,2-a][1,4]diazonine]-10′-carboxamide] are 4.1 nM, 0.3 nM, 1.1 nM and not below 50 µM.
In the case of `CC1=NO[C@@]2(CC[C@H](C)N3C[C@H]2n2cc(C(=O)NCc4ccc(F)c(Cl)c4F)c(=O)c(O)c2C3=O)C1` [Example 6, (3′S,5S,7′R)—N-(3-chloro-2,4-difluorobenzyl)-12′-hydroxy-3,3′-dimethyl-1′,11′-dioxo-1′,4′,5′,11′-tetrahydro-3′H,4H,7′H-spiro[isoxazole-5,6′-[2,7]methanopyrido[1,2-a][1,4]diazonine]-10′-carboxamide], the values for the EC50 in the data set on pLAI reporter virus (read-out: RLUC 50% HS EC50), in the data set on pLAI reporter virus (read-out: RLUC CCM EC50) and with HIV-1 (IIIB) were 543 nM, 0.2 nM and 0.5 nM, respectively. Besides, in “in vitro”, half-maximal cytotoxicity (CC50 at 5 days) was put at 9.28 µM.
Taken in the same sequence, the figures for `C[C@H]1CC[C@@]2(ON=C(CF)[C@@H]2O)[C@H]2CN1C(=O)c1c(O)c(=O)c(C(=O)NCc3c(F)cc(F)cc3F)cn12` [Example 88, (3′S,4S,5R,7′R)-3-(fluoromethyl)-4,12′-dihydroxy-3′-methyl-1′,11′-dioxo-N-(2,4,6-trifluorobenzyl)-1′,4′,5′,11′-tetrahydro-3′H,4H,7′H-spiro[isoxazole-5,6′-[2,7]methanopyrido[1,2-a][1,4]diazonine]-10′-carboxamide] were 280 nM, 0.3 nM, 2.6 nM and not below 50 µM.
Taken in the same sequence, the figures for `C[C@H]1CC[C@]2(CC(CF)=NO2)[C@H]2CN1C(=O)c1c(O)c(=O)c(C(=O)NCc3ccc(F)cc3F)cn12` [Example 17, (3′S,5S,7′R)—N-(2,4-difluorobenzyl)-3-(fluoromethyl)-12′-hydroxy-3′-methyl-1′,11′-dioxo-1′,4′,5′,11′-tetrahydro-3′H,4H,7′H-spiro[isoxazole-5,6′-[2,7]methanopyrido[1,2-a][1,4]diazonine]-10′-carboxamide] were 226 nM, 0.2 nM, 0.6 nM and 20.5 µM.
The corresponding values for `CC1=NO[C@@]2(CC[C@H](C)N3C[C@H]2n2cc(C(=O)NCc4c(F)cc(F)cc4F)c(=O)c(O)c2C3=O)O1` [Example 92, (3′S,5R,7′R)-12′-hydroxy-3,3′-dimethyl-1′,11′-dioxo-N-(2,4,6-trifluorobenzyl)-1′,4′,5′,11′-tetrahydro-3′H,7′H-spiro[[1,4,2]dioxazole-5,6′-[2,7]methanopyrido[1,2-a][1,4]diazonine]-10′-carboxamide] are 409 nM, 0.2 nM, 0.7 nM and 24.9 µM.
Turning to `CC1=NO[C@]2(CC[C@H](C)N3C[C@H]2n2cc(C(=O)NCc4c(F)cc(F)cc4F)c(=O)c(O)c2C3=O)C1` [Example 4, (3′S,5R,7′R)-12′-hydroxy-3,3′-dimethyl-1′,11′-dioxo-N-(2,4,6-trifluorobenzyl)-1′,4′,5′,11′-tetrahydro-3′H,4H,7′H-spiro[isoxazole-5,6′-[2,7]methanopyrido[1,2-a][1,4]diazonine]-10′-carboxamide], the EC50 in the data set with pLAI reporter virus (read-out: RLUC 50% HS EC50) was 4.6 nM; in the data set with pLAI reporter virus (read-out: RLUC CCM EC50), 3 nM; with HIV-1 (IIIB), 5.7 nM. The same compound returned a CC50 at 5 days in “in vitro” not below 50 µM.
Turning to `C[C@H]1CCC2(OCCO2)[C@H]2CN1C(=O)c1c(O)c(=O)c(C(=O)NCc3ccc(F)cc3F)cn12` [Example 129, (3′S,7′R)—N-(2,4-difluorobenzyl)-12′-hydroxy-3′-methyl-1′,11′-dioxo-1′,4′,5′,11′-tetrahydro-3′H,7′H-spiro[[1,3]dioxolane-2,6′-[2,7]methanopyrido[1,2-a][1,4]diazonine]-10′-carboxamide], the figures for the EC50 with pLAI reporter virus (read-out: RLUC 50% HS EC50), in the data set with pLAI reporter virus (read-out: RLUC CCM EC50) and in the data set with HIV-1 (IIIB) were 8 nM, 0.2 nM and 0.5 nM, respectively. In the data set “in vitro”, this compound registered a CC50 at 5 days of 27.4 µM.
For `CC1=NO[C@@]2(CC[C@H](C)N3C[C@H]2n2cc(C(=O)NCc4ccc(F)cc4F)c(=O)c(O)c2C3=O)O1` [Example 91, (3′S,5R,7′R)—N-(2,4-difluorobenzyl)-12′-hydroxy-3,3′-dimethyl-1′,11′-dioxo-1′,4′,5′,11′-tetrahydro-3′H,7′H-spiro[[1,4,2]dioxazole-5,6′-[2,7]methanopyrido[1,2-a][1,4]diazonine]-10′-carboxamide], the EC50 stood at 158 nM with pLAI reporter virus (read-out: RLUC 50% HS EC50), 0.2 nM in the data set with pLAI reporter virus (read-out: RLUC CCM EC50) and 1.4 nM in the data set on HIV-1 (IIIB). Moreover, the midpoint of cytotoxicity in “in vitro”, the CC50 at 5 days, lay at 20 µM.
`C[C@H]1CC[C@]2(CC(F)=NO2)[C@H]2CN1C(=O)c1c(O)c(=O)c(C(=O)NCc3c(F)cc(F)cc3F)cn12` [Example 82, (3′S,5S,7′R)-3-fluoro-12′-hydroxy-3′-methyl-1′,11′-dioxo-N-(2,4,6-trifluorobenzyl)-1′,4′,5′,11′-tetrahydro-3′H,4H,7′H-spiro[isoxazole-5,6′-[2,7]methanopyrido[1,2-a][1,4]diazonine]-10′-carboxamide]: the values for the EC50 with pLAI reporter virus (read-out: RLUC 50% HS EC50), in the data set with pLAI reporter virus (read-out: RLUC CCM EC50) and in the data set with HIV-1 (IIIB) were 186 nM, 1.3 nM and 7.1 nM, respectively. Also, half-maximal cytotoxicity in “in vitro” (CC50 at 5 days) was put at 5.46 µM.
The corresponding values for `COCCOC1=NO[C@@]2(CC[C@H](C)N3C[C@H]2n2cc(C(=O)NCc4c(F)cc(F)cc4F)c(=O)c(O)c2C3=O)C1` [Example 38, (3′S,5S,7′R)-12′-hydroxy-3-(2-methoxyethoxy)-3′-methyl-1′,11′-dioxo-N-(2,4,6-trifluorobenzyl)-1′,4′,5′,11′-tetrahydro-3′H,4H,7′H-spiro[isoxazole-5,6′-[2,7]methanopyrido[1,2-a][1,4]diazonine]-10′-carboxamide] are 1.5 nM, 0.3 nM, 1.2 nM and 22.1 µM.
As to `C[C@H]1CC[C@]2(CC(=O)N(Cc3ccc(Cl)cc3)O2)[C@H]2CN1C(=O)c1c(O)c(=O)c(C(=O)NCc3c(F)cc(F)cc3F)cn12` [Example 109, (3′S,5S,7′R)-2-(4-chlorobenzyl)-12′-hydroxy-3′-methyl-1′,3,11′-trioxo-N-(2,4,6-trifluorobenzyl)-1′,4′,5′,11′-tetrahydro-3′H,7′H-spiro[isoxazolidine-5,6′-[2,7]methanopyrido[1,2-a][1,4]diazonine]-10′-carboxamide], the EC50 came to 3.9 nM with pLAI reporter virus (read-out: RLUC 50% HS EC50), 0.3 nM with pLAI reporter virus (read-out: RLUC CCM EC50) and 1.6 nM in the data set with HIV-1 (IIIB). Moreover, the CC50 at 5 days in the data set “in vitro” was found to be 2.89 µM.
Take `C[C@H]1CC[C@]2(CC(=O)N(Cc3nc4ccccc4s3)O2)[C@H]2CN1C(=O)c1c(O)c(=O)c(C(=O)NCc3c(F)cc(F)cc3F)cn12` [Example 161, (3′S,5S,7′R)-2-(benzo[d]thiazol-2-ylmethyl)-12′-hydroxy-3′-methyl-1′,3,11′-trioxo-N-(2,4,6-trifluorobenzyl)-1′,4′,5′,11′-tetrahydro-3′H,7′H-spiro[isoxazolidine-5,6′-[2,7]methanopyrido[1,2-a][1,4]diazonine]-10′-carboxamide]: the EC50 with pLAI reporter virus (read-out: RLUC 50% HS EC50) amounted to 0.9 nM; in the data set with pLAI reporter virus (read-out: RLUC CCM EC50), 0.4 nM; in the data set on HIV-1 (IIIB), 1.4 nM. Moreover, the CC50 at 5 days in “in vitro” was not below 50 µM.
